Experimental data from patent US7775469B2, “Purposeful movement of human migratory cells away from an agent source” (The General Hospital Corporation, priority 1999, dated 2010).

Columns and labels:
[1] = test system: adult peripheral blood T-cell subpopulations; assay: Transwell transmigration assay with SDF-1α, adult peripheral blood T-cells; assay type: cell-based, human; details: for T-cells transmigrating in response to a positive gradient of SDF-1α: SDF-1α 100 ng/ml
Excerpt: Peripheral blood was obtained from 12 healthy donors (age 25-40 years, median age 31). Peripheral blood mononuclear cells (PBMC) were obtained from peripheral blood using Ficoll-Hypaque. PBMC were stained with anti-CD4 (PE), anti-CD8 (PE), anti-CD45RA (FITC), anti-CD45RO (FITC) (Becton-Dickinson, San Jose, Calif.). The CD4^+CD45RA^+, CD4^+CD45RO^+ and CD8^+CD45RA^+ or CD8^+CD45RO^+ subpopulations of peripheral blood cells were sorted using a FACS vantage sorter (Becton-Dickinson, San Jose, Calif.). […] Sorted adult peripheral blood T-cell subpopulations were cultured overnight in serum-free Iscoves modified medium (GIBCO BRL, Gaithersburg, Md.), prior to their use in chemotaxis assays.
Three chemotaxis assays were used in this study. First, quantitative chemotaxis transmigration assays were performed using a transwell system (Corning Inc., NY) (6.5 mm diameter, 5 μm pore size, polycarbonate membrane) as previously described^13. Purified T-cell and thymocyte subpopulations (5×10^4 cells) were added to the upper chamber of each well in a total volume of 150 μl of IMDM alone. […] Cells were pretreated with pertussis toxin (PTX) 100 ng/ml for 1 hour, genistein (1 μg/ml for 20 minutes), herbimycin (1 μM for 20 minutes) or wortmannin (1 μM for 20 minutes) (Sigma Chemical Company, St Louis, Mo.) in a tissue culture incubator at 37° C. and 5% CO2 prior to their addition to the upper chambers of the transwells in selected experiments.
(§1) Transwells prepared in this way were incubated for 3 hours at 37° C., 5% CO2 incubator. Cells were harvested from the lower chamber after 3 hours and cell counts, immunophenotype and CXCR-4 chemokine receptor expression determined.

[2] = test system: adult peripheral blood T-cell subpopulations; assay: Semi-quantitative transmigration assay with tissue culture insert as SDF-1α reservoir; assay type: cell-based, human
Procedure: The second semi-quantitative transmigration assay involved the use of a tissue culture insert (6.5 mm diameter, 0.45 μm pore size, polycarbonate membrane) (Millipore, Bedford Mass.). Adult peripheral blood T-cell subpopulations (1×10^5 cells) were plated into the wells of a 12-well tissue-culture dish in serum-free Iscove's medium. The tissue-culture plate was then incubated at 37° C. for 1 hour to allow the cells to settle evenly over the base of the well. […] The tissue culture insert was gently placed in the center of the well of the 12-well tissue-culture plate leaving a gap of 0.3 cm between the edge of the insert and the edge of the well of the tissue culture plate. The well with transwell insert was incubated for up to 18 hours at 37° C. on the heated stage of a microscope and viewed by time lapse videomicroscopy recording at 120 frames per hour or by Polaroid still photography. Maintenance of a gradient was assessed by loading of methylene blue into the insert and observing a preserved gradient of color over the incubation period.

[3] = test system: peripheral T-cell subpopulations; assay: Semi-quantitative migration assay in methylcellulose, time lapse videomicroscopy; assay type: cell-based, human; details: SDF-1α loaded at fixed position, 10 μg/ml or 100 ng/ml
Procedure: In the third semi-quantitative migration assay, T-cell subpopulations (1×10^5 cells) were mixed with 0.5 ml of 0.5% methylcellulose (Stem Cell Technologies, Vancouver, BC) in sterile medium and plated in a 24 well plate.
[…]
To further validate the process of concentration dependent directional movement, a third transmigration assay was used. […] The movement of a gradient across the methylcellulose was documented in independent experiments by monitoring a dye front through the culture; a process not achieving equilibrium over the duration of our incubations.

[4] = test system: TN, DP and SP subpopulations of fetal thymocytes; assay: Transwell transmigration of fetal thymocytes to SDF-1α; assay type: cell-based, human
Excerpt: (§2) Human fetal thymi and peripheral blood samples were obtained from 16 to 22 week abortuses according to Institutional Review Board approved guidelines. Thymi were physically disaggregated and mononuclear cell suspensions generated. Thymocytes were stained with CD8 (FITC), CD3 (PE) and CD4 (APC) and sorted into purified subpopulations of triple negative immature thymocytes (TN) (CD3^−, CD4^−, CD8^−) and mature double positive (DP) (CD4^+CD8^+) and single positive (SP) thymocytes (CD3^+CD4^+ or CD3^+CD8^+) by cell sorting. Fetal blood mononuclear cells (FBMC) were prepared from fetal blood using Ficoll-Hypaque as above. FBMC were labeled with CD8 (FITC), CD3 (PE), CD4 (APC) and anti-CD45RA (FITC). Purified populations of CD4^+CD45RA^+ and CD8^+CD45RA^+ T-cells were sorted cultured overnight in serum free Iscoves modified medium prior to use in chemotaxis assays.
(§3) Three chemotaxis assays were used in this study. First, quantitative chemotaxis transmigration assays were performed using a transwell system (Corning Inc., NY) (6.5 mm diameter, 5 μm pore size, polycarbonate membrane) as previously described^13. […]
as §1

[5] = test system: CD4+CD45RA+ and CD8+CD45RA+ fetal blood T-cells; assay: Transwell transmigration of fetal blood T-cells to SDF-1α; assay type: cell-based, human
Excerpt: as §2, §3, §1

C57/B6 mice = assay: T-cell infiltration into the site of a secondary immune response (Ova challenge, peritoneal lavage) after SDF-1; assay type: in vivo, mouse; details: 24 hours
Procedure: C57/B6 mice (Jackson Laboratories, ME) were obtained and primed subcutaneously with 100 μg chicken ovalbumin (Sigma) containing less than 0.01% LPS by the limulus assay and dissolved in 100 μl of Complete Freund's Adjuvant (CFA) (Sigma). Three days ova-primed mice were challenged by intraperitoneal (IP) injection with 100 μg of ovalbumin (Ova) dissolved in 250 μl of ddH20. […] These mice were then euthanized 24 hours following the second IP injection and peritoneal lavage with 5 mls of PBS performed with direct visualization of the peritoneal sac and its contents in order to avoid peripheral blood contamination. Peritoneal fluid cells harvested in this way contained <0.1% red blood cells. Three groups of control mice were used. In the first, C57/B6 mice were euthanized prior to Ova-priming and a peritoneal lavage performed. The second group of control mice were primed subcutaneously and challenged with Ova intraperitoneally as above and then euthanized 24 hours later. […]
Cells harvested from the peritoneal fluid were counted with a hemocytometer and their viability determined by Trypan blue exclusion and the total viable nucleated cell count per ml of peritoneal fluid was determined. […] The proportion of T-cells of each subpopulation (CD3^+, CD3^+CD4^+, CD3^+CD8^+) was determined as a percentage of the total nucleated cell fraction in the peritoneal fluid. […]

[6] = test system: adult peripheral blood T-cell subpopulations; details: reported in the literature; cited from earlier work

## SDF-1α
[1]; CD4+CD45RA+ cells
  concentration of maximal fugetaxis: 10 µg/mL
  T-cells transmigrating in response to a positive gradient of SDF-1α: 85%
[1]; CD4+CD45RO+ cells
  T-cells transmigrating in response to a positive gradient of SDF-1α: 79%
[1]; CD8+CD45RA+ cells
  T-cells transmigrating in response to a positive gradient of SDF-1α: 97%
[1]; CD8+CD45RO+ cells
  T-cells transmigrating in response to a positive gradient of SDF-1α: 51%
[1]; CD8+CD45RO+, CD8+CD45RA+ and CD4+CD45RO+ cells
  concentration of maximal fugetaxis: 1 µg/mL
[1]; all four adult T-cell subpopulations
  concentration of peak chemoattractant activities: 100 ng/mL
[1]; concentration increased from 100 ng/ml to 10 μg/ml, all cells
  decline of chemotaxis toward SDF-1α: ≤ 27 fold
[1]; mature T cells
  concentration at which agent acts as potent fugetactic agent to immune cells: higher than 200 ng/ml
[2]; insert contained 10 μg/ml SDF-1α
  direction of T-cell migration relative to insert: migrate towards the source of SDF-1α and a second population to migrate away
[2]; insert contained SDF-1α at 100 ng/ml
  direction of T-cell migration relative to insert: Only movement toward the insert was seen
[3]
  direction of T-cell movement in methylcellulose: away from high concentrations of SDF-1α and towards low concentrations
[4]; TN, DP, SP fetal thymocytes and fetal blood T-cells
  cell movement in response to SDF-1α: minimal cell movement in response to SDF-1α except in the most immature TN subset
[4]; thymocyte subpopulations, even at 1 μg/ml and 10 μg/ml
  fugetaxis above background chemokinesis: In no thymocyte subpopulation was fugetaxis noted above background chemokinesis levels
[5]
  concentration of maximal chemotactic responses: 100 ng/mL
C57/B6 mice; SDF-1 low dose (100 ng/ml) IP, vs sham or PBS
  T cell accumulation at site of Ova challenge: No significant differences
C57/B6 mice; high dose SDF-1 (5 μg/ml) IP, p=0.02 vs controls
  T cell infiltration at site of Ova challenge: blunted significantly below that of controls
[6]
  concentration at which reported as lymphocyte chemoattractant: lower than 100 ng/ml
